For the assay, the target named is T1, recombinant human mPGES-1 (Homo sapiens, UniProt O14684).
T1 construct: made in house; host or cells: Rosetta E. coli (microsomal/membrane fraction)
T1 sequence (O14684 1-152): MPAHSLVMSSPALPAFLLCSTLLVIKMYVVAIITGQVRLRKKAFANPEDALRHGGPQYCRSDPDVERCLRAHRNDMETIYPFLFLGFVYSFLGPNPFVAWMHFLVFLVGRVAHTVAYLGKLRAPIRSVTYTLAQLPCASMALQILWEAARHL
The assay can be described thus: mPGES-1 inhibition, HTRF detection of PGE2. Format: biochemical. An outline of the steps:
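PGE2 formed from PGH2 in one minute by E. coli-expressed microsomal enzyme (pH 7.4, 2.5 mM GSH) was measured by competitive HTRF against a synthetic PGE2 standard curve. Compounds were preincubated 25 min at room temperature.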
On the technique in general: TR-FRET usually uses a lanthanide donor and a delayed reading to cut background.

As a reminder, the inhibition is the drop in the measured response relative to a control, in per cent. `O=C(N[C@H]1CC[C@H](C(F)(F)F)CC1)c1cc2nc(Nc3c(Cl)cncc3Cl)[nH]c2nc1OCC(F)(F)F` [Example 859, 2-(3,5-Dichloro-pyridin-4-ylamino)-5-(2,2,2-trifluoro-ethoxy)-N-(trans-4-trifluoromethyl-cyclohexyl)-3H-imidazo[4,5-b]pyridine-6-carboxamide]: the inhibition at 10 µM amounted to 89%.
Turning to `Cn1c(Nc2c(Cl)cccc2Cl)nc2cc(C(=O)N[C@H]3CC[C@H](C(F)(F)F)CC3)cnc21` [Example 174, 2-(2,6-Dichloro-phenylamino)-3-methyl-3H-imidazo[4,5-b]pyridine-6-carboxylic acid (trans-4-trifluoromethyl-cyclohexyl)-amide], the inhibition at 10 µM was found to be 99%.
For `Cn1c(Nc2c(Cl)cc(F)cc2Cl)nc2cc(C(=O)N[C@H]3CC[C@H](C(F)(F)F)CC3)c(OCC(F)(F)F)nc21` [Example 814, 2-(2,6-Dichloro-4-fluoro-phenylamino)-5-(2,2,2-trifluoro-ethoxy)-N-(trans-4-trifluoromethyl-cyclohexyl)-3-methyl-3H-imidazo[4,5-b]pyridine-6-carboxamide], the inhibition at 10 µM amounted to 97%.
Still for that read-out and setting: in the case of `Cn1c(Nc2c(Cl)cncc2Cl)nc2cc(C(=O)NCC(F)(F)C(F)(F)C(F)(F)C(F)(F)F)c(OCCF)nc21` [Example 834, 2-(3,5-Dichloro-pyridin-4-ylamino)-5-(2-fluoro-ethoxy)-N-(2,2,3,3,4,4,5,5,5-nonafluoropentyl)-3-methyl-3H-imidazo[4,5-b]pyridine-6-carboxamide] it was 99%; in that of `Cn1c(Nc2c(Cl)cc(F)cc2Cl)nc2cc(C(=O)Nc3ccc(Br)cc3)c(OCC(F)F)nc21` [Example 818, 2-(2,6-Dichloro-4-fluoro-phenylamino)-5-(2,2-difluoro-ethoxy)-N-(4-bromo-phenyl)-3-methyl-3H-imidazo[4,5-b]pyridine-6-carboxamide], 99%.
In the case of `CC1(C)CCC(NC(=O)c2cnc3c(c2)nc(Nc2c(Cl)cccc2Cl)n3Cc2ccccc2)CC1` [Example 413, 3-Benzyl-2-(2,6-dichlorophenylamino)-N-(4,4-dimethylcyclohexyl)-3H-imidazo[4,5-b]pyridine-6-carboxamide], the inhibition at 10 µM amounted to 100%.
Same read-out and setting: in the case of `COCCOc1nc2[nH]c(Nc3c(Cl)cncc3Cl)nc2cc1C(=O)N[C@H]1CC[C@H](C(F)(F)F)CC1` [Example 866, 2-(3,5-Dichloro-pyridin-4-ylamino)-5-(2-methoxy-ethoxy)-N-(trans-4-trifluoromethyl-cyclohexyl)-3H-imidazo[4,5-b]pyridine-6-carboxamide] it was 100%; in that of `O=C(N[C@H]1CC[C@H](C(F)(F)F)CC1)c1cc2nc(Nc3ccccc3C(F)(F)F)[nH]c2nc1OCC(F)F` [Example 784, 2-(2-Trifluoromethyl-phenylamino)-5-(2,2-difluoro-ethoxy)-N-(trans-4-trifluoromethyl-cyclohexyl)-3H-imidazo[4,5-b]pyridine-6-carboxamide], 97%.
The same measure, in the same setting: as for `O=C(Nc1cc(C(F)(F)F)ccn1)c1cc2nc(Nc3c(Cl)cncc3Cl)[nH]c2nc1OCC(F)F` [Example 803, 2-(3,5-Dichloro-pyridin-4-ylamino)-5-(2,2-difluoro-ethoxy)-N-(4-trifluoromethyl-pyridin-2-yl)-3H-imidazo[4,5-b]pyridine-6-carboxamide], the figure is 99%; as for `Cc1cc(C)c(Nc2nc3cc(C(=O)N[C@H]4CC[C@H](C(F)(F)F)CC4)c(OCC(F)F)nc3[nH]2)c(Cl)n1` [Example 793, 2-(2-Chloro-4,6-dimethyl-pyridin-3-ylamino)-5-(2,2-difluoro-ethoxy)-N-(trans-4-trifluoromethyl-cyclohexyl)-3H-imidazo[4,5-b]pyridine-6-carboxamide], 94%; as for `O=C(NCC(F)(F)C(F)(F)C(F)(F)C(F)(F)F)c1cc2nc(Nc3c(Cl)cc(F)cc3Cl)[nH]c2nc1OCC(F)F` [Example 825, 2-(2,6-Dichloro-4-fluoro-phenylamino)-5-(2,2-difluoro-ethoxy)-N-(2,2,3,3,4,4,5,5,5-nonafluoropentyl)-3H-imidazo[4,5-b]pyridine-6-carboxamide], 98%.
The same measure, in the same setting: as for `O=C(Nc1ccc(Br)cc1)c1cc2nc(Nc3c(Cl)cc(F)cc3Cl)[nH]c2nc1OCC(F)F` [Example 822, 2-(2,6-Dichloro-4-fluoro-phenylamino)-5-(2,2-difluoro-ethoxy)-N-(4-bromo-phenyl)-3H-imidazo[4,5-b]pyridine-6-carboxamide], the figure is 100%.
Regarding `Cn1c(Nc2c(F)cccc2C(F)(F)F)nc2cc(C(=O)Nc3ccc(Br)cc3)c(OCC(F)F)nc21` [Example 771, N-(4-Bromophenyl)-2-(2-fluoro-6-trifluoromethylphenylamino)-5-(2,2-difluoro-ethoxy)-3-methyl-3H-imidazo[4,5-b]pyridine-6-carboxamide], the inhibition at 1 µM is 100%.
Turning to `Cc1ccnc(C)c1Nc1nc2cc(C(=O)N[C@H]3CC[C@H](C(F)(F)F)CC3)c(OCC(F)F)nc2[nH]1` [Example 794, 2-(2,4-Dimethyl-pyridin-3-ylamino)-5-(2,2-difluoro-ethoxy)-N-(trans-4-trifluoromethyl-cyclohexyl)-3H-imidazo[4,5-b]pyridine-6-carboxamide], the inhibition at 10 µM worked out at 100%.
In the case of `O=C(NC1CCC2(CC1)CC2)c1cnc2[nH]c(Nc3c(Cl)cccc3Cl)nc2c1` [Example 485, 2-(2,6-Dichlorophenylamino)-N-(spiro[2.5]octan-6-yl)-3H-imidazo[4,5-b]pyridine-6-carboxamide], the inhibition at 10 µM was found to be 98%.
Same read-out and setting: in the case of `Cc1ccnc(Br)c1Nc1nc2cc(C(=O)N[C@H]3CC[C@H](C(F)(F)F)CC3)c(OCC(F)F)nc2[nH]1` [Example 795, 2-(2-Bromo-4-methyl-pyridin-3-ylamino)-5-(2,2-difluoro-ethoxy)-N-(trans-4-trifluoromethyl-cyclohexyl)-3H-imidazo[4,5-b]pyridine-6-carboxamide] it was 98%.
The same measure, in the same setting: in the case of `CCOc1nc2[nH]c(Nc3c(Cl)cncc3Cl)nc2cc1C(=O)NCc1ncccc1C(F)(F)F` [Example 843, 2-(3,5-Dichloro-pyridin-4-ylamino)-5-ethoxy-N-((3-trifluoromethyl-pyridin-2-yl)-methyl)-3H-imidazo[4,5-b]pyridine-6-carboxamide] it was 99%; in that of `Cn1c(Nc2c(Cl)cccc2Cl)nc2cc(C(=O)NC3CCC4(CC4)C3)cnc21` (centres unmarked) [Example 506, 2-(2,6-Dichlorophenylamino)-3-methyl-N-(spiro[2.4]heptan-5-yl)-3H-imidazo[4,5-b]pyridine-6-carboxamide], 100%; in that of `CCCC[C@@H](C)NC(=O)c1cnc2c(c1)nc(Nc1c(Cl)cccc1Cl)n2C` [Example 508, (R)-2-(2,6-Dichlorophenylamino)-N-(hexan-2-yl)-3-methyl-3H-imidazo[4,5-b]pyridine-6-carboxamide], 94%.
In the case of `Cn1c(Nc2c(Cl)cccc2Cl)nc2cc(C(=O)NC3CCC(C(C)(C)C)CC3)cnc21` (centres unmarked) [Example 393, N-(4-tert-Butylcyclohexyl)-2-(2,6-dichlorophenylamino)-3-methyl-3H-imidazo[4,5-b]pyridine-6-carboxamide], the inhibition at 10 µM is 99%.

For the origin of these results see patent US8703796B2, “3H-imidazo [4, 5-B] pyridine-6-carboxamides as anti-inflammatory agents” (Boehringer Ingelheim International GmbH, priority 2008, dated 2014).
